Experimental data from patent publication US20240122932A1, “Methods of Treating B-Cell Malignancy Using Bcl-2 Inhibitor” (BeiGene Switzerland GmbH, priority 2021, published 2024).
Entries after “also recorded” stand apart in the source; their conditions may differ.

Experiments:
[1] = system: patients with R/R B-cell malignancies; assay: phase 1 clinical study: efficacy (response, ALC, SPD); format: in vivo, human
Method: A phase 1 study (dose escalation and safety expansion) to determine safety, tolerability, maximum tolerated dose ([…]), and recommended phase 2 dose (RP2D) of Compound 1 in patients with R/R B-cell malignancies was conducted. (Table 6-1A).
Part 1 Monotherapy Ramp-Up Schedule and Dose Finding • 1) Cohort 1A: Cohort 1A consists of patients with relapsed/refractory B-cell non-Hodgkin lymphoma (R/R B-cell NHL) excluding mantle cell lymphoma (MCL). These patients are expected to be at low risk of tumor lysis syndrome (low TLS risk), and are treated with a short ramp-up schedule reaching target dose on Day 3. Patients in this cohort receive escalating doses of Compound 1 monotherapy: 40 mg, 80 mg, 160 mg, 320 mg, and 640 mg (unless adjusted by Safety Monitoring Committee [SMC] recommendation). • 2) Cohort 1B is opened, when ≥1 tolerable dose level of Cohort 1A was determined. It consists of patients with low-tumor-burden R/R CLL/SLL. This cohort pursues dose finding, including evaluation of both ramp-up schedule and target dose. Patients increase the ramp-up dose weekly until the target dose for the cohort is reached. The ramp-up steps is 1 mg, 2 mg, 5 mg, 10 mg, 20 mg, 40 mg, 80 mg, 160 mg, 320 mg, and 640 mg (unless adjusted by SMC recommendation). […]. • 3) Cohort 1C: This Cohort consists of patients with high-tumor-burden R/R chronic lymphocytic leukemia/small lymphocytic lymphoma (R/R CLL/SLL). This cohort will not be dosed until the RP2D for Cohort 1B is established. The objective of this cohort is to confirm, in patients with high-tumor-burden CLL/SLL, the safety of the monotherapy ramp-up schedule and RP2D established in patients with low-tumor-burden CLL/SLL. • 4) Cohort 1D: This Cohort consists of patients with R/R MCL. This cohort will not be dosed until the RP2D for Cohort 1B is established. The objective of this cohort is to confirm, in patients with R/R MCL, the safety of the monotherapy ramp-up schedule and RP2D established in patients with low tumor-burden CLL/SLL. • Cohort 1D′: This Cohort consists of patients with R/R MCL. And, the target dosage are 160 and 320 mg. • 5) Cohort 1E: This Cohort consists of patients with R/R waldenstrom macroglobulinemia (R/R WM). This cohort will not be dosed until the RP2D for Cohort 1B is established. The objective of this cohort is to confirm, in patients with R/R WM, the safety of the monotherapy ramp-up schedule and RP2D established in patients with low tumor-burden CLL/SLL.
The study also includes dose escalation and expansion cohorts for the combination of Compound 1 and Bruton tyrosine kinase (BTK) inhibitor Zanubrutinib in patients with selected B-cell malignancy, such as CLL/SLL and mantle cell lymphoma (MCL). (Table 6-2A). Patients in the combination therapy cohorts receive Zanubrutinib 320 mg daily (160 mg twice a day [BID] or 320 mg once a day [QD]) beginning 8-12 weeks before Compound 1 is introduced. And, the corresponding dose-escalation and expansion are conducted in Part 3 and Part 4):
Dose finding is pursued in Patients with R/R CLL/SLL or R/R MCL who are Bel-2-inhibitor naive and have not progressed on a BTK inhibitor, including evaluation of ramp-up schedule and target dose of Compound 1 when used in combination with Zanubrutinib. The Compound 1 dose vary but the Zanubrutinib dose is fixed at 320 mg/day (160 mg twice daily or 320 mg once daily). The ramp-up dose increases weekly until the target dose for the cohort is reached. The ramp-up steps for Compound 1 are 1 mg, 2 mg, 5 mg, 10 mg, 20 mg, 40 mg, 80 mg, 160 mg, 320 mg, and 640 mg (unless adjusted by SMC recommendation).
In all Cohorts of the phase 1 study, Compound 1 is orally administrated once daily (QD). […]

[2] = system: RS4;11 Bcl-2G101V KI acute lymphoblastic leukemia (ALL) subcutaneous xenograft; assay: RS4;11 Bcl-2G101V KI ALL subcutaneous xenograft model; format: in vivo, NCG mice
Method: The RS4;11 Bcl-2G101V KI cells are of acute lymphoblastic leukemia (ALL) origin and were screened in house. Cells were grown in RPMI 1640 medium (Corning, Cat #10-040-CVR), supplemented with 10% (v/v) fetal bovine serum (Gibco, Cat #10099-141C), and 100 μg/mL of penicillin and streptomycin (Gibco, Cat #15140-122). […] Five to six-week-old female NCG mice were supplied by GemPharmatech Co., Ltd, Jiangsu, China. All animals were maintained under specific pathogen free (SPF) “full barrier” condition with free access to food and water. Mice were group-housed under a 12 h light:dark cycle (lights on at 08:00 h), at a temperature of 20-26° C. and 37-62% humidity in WC cages (Lingyunboji (Beijing) Technology Co., Ltd.). Mice were fed with complete granulated feed with Co60 radio sterilization (Beijing Ke Ao Xie Li Feed Co., Ltd.).
Re-suspended cells were placed on ice prior to inoculation. The right front flank region of each mouse was cleaned with 75% ethanol prior to cell inoculation. Each animal was injected subcutaneously with 1×10^7 cells in 200 μL of cell suspension in the right front flank via a 26-gauge needle. After implantation, primary tumor volume was measured in two dimensions using a caliper.
Animals were randomly assigned into 7 groups with 8 mice per group according to body weight and tumor volume (around 300 mm^3). The groups consisted of vehicle group, 15, 50 and 100 mg/kg of venetoclax with QD dosing, 15, 50 and 100 mg/kg of Compound 1 with QD dosing. Treatments were administered by oral gavage (p.o.) in a volume of […]. Body weight was assessed immediately before dosing and volume dosed was adjusted accordingly.
Individual body weight was recorded twice weekly, with mice being monitored daily for clinical signs of toxicity for the duration of the study. Mice were euthanized using carbon dioxide when their tumor volume reached 2,000 mm^3, the tumor was ulcerated, or body weight loss exceeded 20%.
Tumor volume was calculated using the formula: V=0.5×(a×b^2) where a and b are the long and short diameters of the tumor, respectively.

Q: Which “early response in CLL” value ([1]; CLL/SLL monotherapy, 36-patient data, 80-mg dose level, del (17p) CLL) does the source give for CC(C)c1ccccc1[C@@H]1CCCN1C1CC2(CCN(c3ccc(C(=O)NS(=O)(=O)c4ccc(NCC5CCC(C)(O)CC5)c([N+](=O)[O-])c4)c(Oc4cnc5[nH]ccc5c4)c3)CC2)C1 (stereo partly drawn) [Compound 1, 2-((1H-pyrrolo[2,3-b]pyridin-5-yl)oxy)-N-((4-((((1r,4r)-4-hydroxy-4-methylcyclohexyl)methyl)amino)-3-nitrophenyl)sulfonyl)-4-(2-((S)-2-(2-isopropylphenyl)pyrrolidin-1-yl)-7-azaspiro[3.5]nonan-7-yl)benzamide] here?
A: 1 of 4 patients with CLL reached first response assessment and achieved partial response

Q: What about the “patients achieving a response” value ([1]; NHL, monotherapy, 36-patient data, about 5 months of treatment duration, including 1 CR) of the same compound?
A: 2 patients

Q: And the “patients achieving partial response with lymphocytosis (PR-L) or better” value ([1]; monotherapy, R/R CLL/SLL, four of 6 patients, at either 80 or 160 mg)?
A: 67%

Q: What about the patients responded ([1]; monotherapy, R/R NHL, two of 20 patients, 1 PR at 160 mg and 1 CR at 320 mg) of the same compound?
A: 10%

Q: And the “patients with minor response” value ([1]; monotherapy, R/R WM, one of 2 patients, at 80 mg)?
A: 50%

Q: And the “reduction in SPD from baseline” value ([1]; monotherapy, patients with R/R NHL)?
A: significant reduction in SPD form baseline were seen in most patients; also recorded: significant reduction in SPD from baseline were seen in most patients

Q: What about the “reduction in absolute lymphocyte count (ALC)” value ([1]; patients with CLL during ramp-up, monotherapy and combination therapy, seen at dose levels as low as 1 mg) of the same compound?
A: significant reduction in absolute lymphocyte count (ALC) was noted among all patients with CLL during ramp-up

Q: What about the “blood MRD (minimal residual disease) negativity” value ([1]; patients with CLL, monotherapy or combination with Zanubrutinib) of the same compound?
A: negativity was observed in 160 mg cohorts after 6 months treatment but not in 40 mg and 80 mg cohorts

Q: CC1(C)CCC(CN2CCN(c3ccc(C(=O)NS(=O)(=O)c4ccc(NCC5CCOCC5)c([N+](=O)[O-])c4)c(Oc4cnc5[nH]ccc5c4)c3)CC2)=C(c2ccc(Cl)cc2)C1 [Venetoclax, reference compound] was tested. Which “Mean Tumor Volume (Day 10) (mm^3 ± SEM)” value ([2]; 15 mg/kg QD × 10 p.o.) did it give?
A: 976.6 ± 64.0 mm^3

Q: And the “TGI (Day 10)” value ([2]; 15 mg/kg QD × 10 p.o.)?
A: 44%

Q: What about the “Mean Tumor Volume (Day 10) (mm^3 ± SEM)” value ([2]; 50 mg/kg QD × 10 p.o.) of the same compound?
A: 711.8 ± 49.7 mm^3

Q: What about the “TGI (Day 10)” value ([2]; 50 mg/kg QD × 10 p.o.) of the same compound?
A: 65%

Q: And the “Mean Tumor Volume (Day 10) (mm^3 ± SEM)” value ([2]; 100 mg/kg QD × 10 p.o.)?
A: 530.4 ± 75.4 mm^3

Q: What about the “TGI (Day 10)” value ([2]; 100 mg/kg QD × 10 p.o.) of the same compound?
A: 80%
